From patent publication US10723764B2, “Anti-microbial peptides and methods of use thereof” (priority 2011, dated 2020)
Values after ≈ are worked out from the molar mass of the structure shown. Where a SMILES comes first, the peptide text is derived from it. Where no end group is shown, it is not given here. [ ]: non-standard residue; d: D form. Phe(4-CF3) = N[C@@H](Cc1ccc(C(F)(F)F)cc1)C(=O)O; Bip = N[C@@H](Cc1ccc(-c2ccccc2)cc1)C(=O)O

Columns and labels:
Bacillus subtilis 168 = assay type: cell-based
Protocol: (§1) The bacterial strains used in the study are Bacillus subtilis 168, methicillin-resistant Staphylococcus aureus USA300 LAC (Gram-positive), Escherichia coli K12, and Pseudomonas aeruginosa PAO1 (Gram negative). The antibacterial activities of the peptides were determined using the standard broth microdilution method (Wang et al. (2005) J. Biol. Chem., 280:5803-5811). In brief, the bacterial culture (90 μL) was treated with a series of peptide solutions (10 μL), each with two-fold dilution. After overnight incubation at 37° C., the microplate was read on a ChroMate® 4300 Microplate Reader at 630 nm (GMI, Ramsey, Minn.).
(§2) For the initial screen, antimicrobial activities of these peptides against S. aureus and E. coli were evaluated using the standard broth microdilution protocol (Wang, G. (2008) J. Biol. Chem., 283:32637-43). […] Subsequently, the in vitro activity of these six peptides was evaluated against Bacillus subtilis and Pseudomonas aeruginosa (Table 6). […] While maculatin 1.3 is active against two Gram-positive but not two Gram-negative bacterial strains, DASamP1 is species-specific since it active only against S. aureus. The finding that ascaphin-8, […], and piscidin 1 are wide-spectrum AMPs agrees with the literature (Apponyi et al. (2004) Peptides 25:1035-1054; Conlon et al. (2004) Biochem. Biophys. Res. Commun., 320:170-175; Silphaduang et al. (2001) Nature 414:268-269; Souza et al. (2005) J. Immunol., 186:6585-6596). For lycotoxin I, it was previously found to active against Gram-negative E. coli and yeast (Yan et al. (1998) J. Biol. Chem., 273:2059-2066).

[1] = system: Pseudomonas aeruginosa PAO1; assay type: cell-based
Protocol: as §1, §2
(§3) The antibacterial activities of the peptides were determined using the standard broth microdilution method (Mishra et al. (2012) J. Am. Chem. Soc., 134:12426-12429; Wang et al. (2005) Biol. Chem., 280:5803-5811). Briefly, the bacterial culture was treated with a series of peptide solutions, each with two-fold dilution. After overnight incubation at 37° C., the microplate was read on a ChroMate® 4300 Microplate Reader at 630 nm (GMI, Ramsey, Minn.).

[2] = Peptide solubility (observation); assay type: physicochemical
chymotrypsin = chymotrypsin (Bos taurus, UniProt P00766); test: Peptide stability to chymotrypsin by SDS-PAGE; assay type: in vitro ADME, bovine; conditions: for time the peptide stays intact in the presence of chymotrypsin: 12.5 μM chymotrypsin, peptide/protein 40:1, PBS pH 8, 37° C.
Protocol: A solution (100 μl) of the peptide and 12.5 μM chymotrypsin (peptide/protein molar ratio, 40:1) in 10 mM PBS buffer (pH 8) was incubated at 37° C. Aliquots (10 μl) of the reaction solutions were taken at 0, 2, 4, and 22 hours and immediately mixed with 20 μl of 2×SDS loading buffer to stop the reaction. For the gel analysis, 10 μl of each sample was loaded to the well of a 5% stacking/18% resolving tricine gel. The samples in the lanes are: 1, protein marker; 2, temporin-PTa L-form at 0 hour; 3, 2 hours; 4, 4 hours; 5, 22 hours; 6, temporin-PTa D-form at 0 hour; 7, 2 hours; 8, 4 hours; 9, 22 hours. In the gel, the bands for the peptide and chymotrypsin were indicated with large and small arrows, respectively. Note that the peptide bands were not detected in lanes 3-5 due to protease cleavage but remained essentially constant in lanes 7-9.
Peptide stability was evaluated using standard SDS-PAGE (described in FIG. 5).
(§4) Peptide stability was evaluated based on a published protocol (Mishra et al. (2012) J. Am. Chem. Soc., 134:12426-12429) with one modification. Aliquots (10 μL) of the reaction solutions (peptide/protease molar ratio, 40:1) in 10 mM PBS buffer (pH 8) at 37° C. were taken at 0, 6, and 24 hours and immediately mixed with 10 μL of 2×SDS loading buffer followed by boiling for 5 minutes to stop the reaction. Samples were analyzed using 5% stacking/18% resolving tricine gel.

A. baumannii B2367-12 = assay type: cell-based, Acinetobacter baumanii
Protocol: as §3

E. cloacae B2366-12 = assay type: cell-based; conditions: B2366-12
Protocol: as §3

[3] = human, hemolysis, at 160 μM, human red blood cells
Protocol: (§5) Peptide hemolysis was assayed using an established protocol (Malmsten et al. (2011) PLoS One 6:e16400). In brief, fresh blood, obtained from the UNMC Blood Bank, was washed three times with PBS buffer and made into a 5% solution. To 90 μL of this solution, 10 μL of a peptide solution was added and incubated at 37° C. for one hour. After centrifugation at 13,000 rpm, aliquots of the supernatant were transferred to a fresh 96 well microplate. The absorbance of the solutions was measured at 545 nm to detect the amount of hemoglobin released. The percent lysis was calculated by assuming 100% release when treated with 2% Triton X-100 and no lysis (0%) when treated with PBS buffer. HL50 was the peptide concentration that caused 50% lysis of human erythrocytes. The cell selectivity (CS) indexes were calculated as the ratio of HL50 to the MIC of the peptide against S. aureus USA300.
(§6) The hemolytic effects of the six peptides were also compared on human red blood cells (hRBC) using an established protocol (Malmsten et al. (2011) PLoS One 6:e16400). […] A high TI indicates good cell selectivity.
(§7) Peptide hemolysis was assayed using an established protocol (Menousek et al. (2012) Int. J. Antimicrob. Agents 39:402-406; Malmsten et al. (2011) PLoS One 6:e16400). Briefly, blood cells were washed three times with phosphate-buffered saline (PBS) and were diluted to a 5% solution. Following peptide treatment, incubation at 37° C. for 1 hour and centrifugation at 13,000 rpm, aliquots of the supernatant were transferred to a fresh 96-well microplate. To assess peptide cytotoxicity, the amount of hemoglobin released was measured at 545 nm. Percent lysis was calculated by assuming 100% release when human blood cells were treated with 2% Triton X-100 and 0% release when they were incubated with PBS buffer.

human erythrocytes = conditions: for HL50 (μM), peptide concentration that causes 50% lysis of human erythrocytes: Table 10
Protocol: as §5, §6, §7

Escherichia coli K12 = conditions: Table 8
ESKAPE pathogens = assay type: cell-based
Protocol: as §3
A rational design was conducted on the basis of the 3D structure of GF-17d3. […] The noncoherent packing of the GF-17d3 side chains caused a hydrophobic defect in the structure (FIGS. 8C and 8D, arrow), leading to reduced hydrophobicity. Accordingly, it was hypothesized that the antimicrobial activity of this peptide 17F2 (sequence GX1KRLVQRLKDX2LRNLV (SEQ ID NO: 58), Table 9) could be enhanced by filling in the hydrophobic cavity (FIG. 8D, arrow) with a larger hydrophobic side chain. The antimicrobial activities of these peptide analogues were evaluated using the standard microdilution assays (Mishra et al. (2012) J. Am. Chem. Soc., 134:12426-12429), and the minimal inhibitory concentrations (MIC) against a panel of the ESKAPE pathogens are provided in Table 10. […] To compare the two sites, these two substitutions at positions X1 and X2 were swapped to obtain 17Naph-mF. […] In addition, biphenylalanines were incorporated at position X1 alone or at both X1 and X2 of the 17F2 template. […] The killing abilities of these peptides are essentially proportional to their MIC values as well as retention times (a measure of hydrophobicity) on a reverse-phase HPLC column (Mishra et al. (2012) J. Am. Chem. Soc., 134:12426-12429).

E. faecium ATCC51559 = assay type: cell-based, Enterococcus faecium; conditions: ATCC51559
Protocol: as §3

[4] = system: methicillin-resistant Staphylococcus aureus USA300 LAC; conditions: for MIC (μM) SA: S. aureus USA300 LAC, Table 10; for S. aureus USA 300 MIC: Table 8
Protocol: This was done by modifying the standard microdilution antimicrobial assays (Wang, G. (2008) J. Biol. Chem., 283:32637-32643). Specifically, the bacterial wells with a high peptide concentration (e.g. 100 μM) are duplicated (e.g., two for antimicrobial assays and two for protease stability assays). As an illustration, chymotrypsin was applied to the duplicated wells at a peptide:protease molar ratio of 25:1.

fungal protease K = fungal protease K (Parengyodontium album, UniProt P06873); test: Peptide stability to fungal protease K by SDS-PAGE; assay type: in vitro ADME; conditions: peptide/protease 40:1, PBS pH 8, 37° C.
Chain of fungal protease K (P06873 106-384): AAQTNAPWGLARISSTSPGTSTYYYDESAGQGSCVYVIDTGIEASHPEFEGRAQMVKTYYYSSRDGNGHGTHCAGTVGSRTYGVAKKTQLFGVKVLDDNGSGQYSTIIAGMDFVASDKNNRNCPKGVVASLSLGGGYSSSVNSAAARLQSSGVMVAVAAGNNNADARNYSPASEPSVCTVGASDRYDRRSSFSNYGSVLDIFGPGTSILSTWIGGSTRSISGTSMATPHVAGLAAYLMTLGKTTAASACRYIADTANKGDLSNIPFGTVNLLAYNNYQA
Protocol: (§8) FIG. 10 provides a stability comparison of synthetic 17BIPHE2 with GF-17 in the presence of bovine chymotrypsin, porcine trypsin, S. aureus protease V8, and fungal protease K. Two samples were analyzed in this gel for each protease: 0 and 6 hours for GF-17 and 0 and 24 hours for 17BIPHE2.
as §4

S. aureus V8 protease = S. aureus V8 protease (Staphylococcus aureus, UniProt P0C1U8); assay type: in vitro ADME; conditions: peptide/protease 40:1, PBS pH 8, 37° C.
Chain of S. aureus V8 protease (P0C1U8 69-336): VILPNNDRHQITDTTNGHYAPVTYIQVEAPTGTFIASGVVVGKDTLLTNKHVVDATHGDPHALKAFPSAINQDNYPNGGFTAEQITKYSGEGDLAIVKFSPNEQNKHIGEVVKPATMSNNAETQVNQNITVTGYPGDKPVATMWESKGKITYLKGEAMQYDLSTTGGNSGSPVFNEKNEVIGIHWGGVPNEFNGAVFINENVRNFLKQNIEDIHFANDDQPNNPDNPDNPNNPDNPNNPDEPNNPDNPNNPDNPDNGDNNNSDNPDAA
Protocol: as §8, §4

## LLGSLLKLLPKLL-NH2 [Temporin-PTa8L]
Bacillus subtilis 168
  MIC (μM) BS: 3.12 µM
[1]
  MIC (μM) PA: >100 µM

## GIIPIISIIGKII-NH2 (C-terminus assumed) [DFTamP1-pi]
[2]
  solubility: poorly soluble

## CC[C@H](C)[C@H](NC(=O)[C@H](CCCCN)NC(=O)[C@@H]1CCCN1C(=O)[C@@H](NC(=O)[C@H](CC(C)C)NC(=O)[C@H](CCCCN)NC(=O)[C@H](CC(C)C)NC(=O)[C@@H](NC(=O)[C@H](CO)NC(=O)CNC(=O)[C@H](Cc1ccccc1)NC(=O)[C@@H](N)Cc1ccccc1)C(C)C)[C@@H](C)CC)C(=O)N[C@@H](CC(C)C)C(N)=O [Temporin-PTa, reference compound]
chymotrypsin
  time the peptide stays intact in the presence of chymotrypsin: ≤ 2 h

## CC(C)C[C@H](NC(=O)[C@H](CC(N)=O)NC(=O)[C@H](CCCNC(=N)N)NC(=O)[C@@H](CC(C)C)NC(=O)[C@H](Cc1ccccc1)NC(=O)[C@H](CC(=O)O)NC(=O)[C@H](CCCCN)NC(=O)[C@@H](CC(C)C)NC(=O)[C@H](CCCNC(=N)N)NC(=O)[C@H](CCC(N)=O)NC(=O)[C@@H](NC(=O)[C@@H](CC(C)C)NC(=O)[C@H](CCCNC(=N)N)NC(=O)[C@H](CCCCN)NC(=O)[C@H](Cc1ccc(C(F)(F)F)cc1)NC(=O)CN)C(C)C)C(=O)N[C@H](C(N)=O)C(C)C [B128A, GX1KRLVQRLKDX2LRNLV-amide] (H-G[Phe(4-CF3)]KR[dL]VQR[dL]KDF[dL]RNLV-NH2)
A. baumannii B2367-12
  MIC (μM) AB: 3.1 to 6.2 µM
E. cloacae B2366-12
  MIC (μM) EC: 25 µM (≈ 54.2 µg/mL)
[3]
  hemolysis at 160 µM: 3 to 5%
Human erythrocytes
  HL50 (μM), peptide concentration that causes 50% lysis of human erythrocytes: >900 µM
Human erythrocytes; human, 160 µM
  hemolysis: <5%
[1]
  MIC (μM) PA: 25 µM (≈ 54.2 µg/mL)
Escherichia coli K12
  E. coli K12 MIC: 5 µM
ESKAPE pathogens; most of the ESKAPE strains
  MICs against most of the ESKAPE strains: 25 to 50 µM
E. faecium ATCC51559
  MIC (μM) EF: 25 to 50 µM
[4]
  MIC (μM) SA: 25 µM (≈ 54.2 µg/mL)
  S. aureus USA 300 MIC: 40 µM

## FFGSLLKLLPKLL-NH2 [Temporin-PTa6L]
Bacillus subtilis 168
  MIC (μM) BS: 3.12 µM

## CC(C)C[C@H](NC(=O)[C@H](CC(N)=O)NC(=O)[C@H](CCCNC(=N)N)NC(=O)[C@@H](CC(C)C)NC(=O)[C@H](Cc1ccc(-c2ccccc2)cc1)NC(=O)[C@H](CC(=O)O)NC(=O)[C@H](CCCCN)NC(=O)[C@@H](CC(C)C)NC(=O)[C@H](CCCNC(=N)N)NC(=O)[C@H](CCC(N)=O)NC(=O)[C@@H](NC(=O)[C@@H](CC(C)C)NC(=O)[C@H](CCCNC(=N)N)NC(=O)[C@H](CCCCN)NC(=O)[C@H](Cc1ccc(-c2ccccc2)cc1)NC(=O)CN)C(C)C)C(=O)N[C@H](C(N)=O)C(C)C [D128A, GX1KRLVQRLKDX2LRNLV-amide] (H-G[Bip]KR[dL]VQR[dL]KD[Bip][dL]RNLV-NH2)
A. baumannii B2367-12
  MIC (μM) AB: 3.1 µM (≈ 6.99 µg/mL)
Fungal protease K
  time stable in the presence of fungal protease K: at least 24 hours
S. aureus V8 protease
  time stable in the presence of S. aureus V8 protease: at least 24 hours
E. cloacae B2366-12
  MIC (μM) EC: 3.1 µM (≈ 6.99 µg/mL)
Human erythrocytes; Table 8
  HL50 (μM), peptide concentration at which 50% human red blood cells were lysed: 150 µM
Human erythrocytes
  HL50 (μM), peptide concentration that causes 50% lysis of human erythrocytes: 225 µM
[1]
  MIC (μM) PA: 6.2 µM (≈ 14 µg/mL)
Escherichia coli K12
  E. coli K12 MIC: 2.5 µM
ESKAPE pathogens
  MIC against all of the ESKAPE pathogens: 3.1 to 6.2 µM
E. faecium ATCC51559
  MIC (μM) EF: 3.1 µM (≈ 6.99 µg/mL)
[4]
  MIC (μM) SA: 3.1 µM (≈ 6.99 µg/mL)
  S. aureus USA 300 MIC: 5 µM
chymotrypsin; during 4 hours
  level of intact peptide in the presence of chymotrypsin: remained constant

## CC[C@@H](C)[C@@H](NC(=O)[C@@H](CCCCN)NC(=O)[C@H]1CCCN1C(=O)[C@H](NC(=O)[C@@H](CC(C)C)NC(=O)[C@@H](CCCCN)NC(=O)[C@@H](CC(C)C)NC(=O)[C@H](NC(=O)[C@@H](CO)NC(=O)CNC(=O)[C@@H](Cc1ccccc1)NC(=O)[C@H](N)Cc1ccccc1)C(C)C)[C@H](C)CC)C(=O)N[C@H](CC(C)C)C(N)=O [Temporin-PTa (D-form)]
Bacillus subtilis 168
  MIC (μM) BS: 6.25 µM (≈ 9.21 µg/mL)
[1]
  MIC (μM) PA: >100 µM
chymotrypsin
  time the peptide stays intact in the presence of chymotrypsin: at least 22 hours
